Values joined by “and” are separate entries in the source; they are usually repeats but may differ in a detail not shown here. Equal values may be shown once. Toxic doses and inconclusive results are not listed.
Tested on: P388 leukemia ip, CD2F1 mice, survival T/C
Assay: NCI In Vivo Anticancer Drug Screen. Data for tumor model P388 Leukemia (intraperitoneal) in CD2F1 (CDF1) mice
Conditions: endpoint: median survival time, higher = longer survival
Outline: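 Mice carrying the transplanted tumor received test compound or vehicle. Survival was recorded in each group, and the value is the treated-group measurement divided by that of the vehicle-treated control group.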

[1] = dose: 15.0 mg/kg/injection, schedule: Q01DX005 (ip), vehicle: saline with Tween-80
[2] = dose: 30.0 mg/kg/injection, schedule: Q01DX005 (ip), vehicle: saline with Tween-80
[3] = dose: 60.0 mg/kg/injection, schedule: Q01DX005 (ip), vehicle: saline with Tween-80
[4] = dose: 100.0 mg/kg/injection, schedule: Q04DX003 (ip), vehicle: saline with Tween-80
[5] = dose: 200.0 mg/kg/injection, schedule: Q04DX003 (ip), vehicle: saline with Tween-80
[6] = dose: 400.0 mg/kg/injection, schedule: Q04DX003 (ip), vehicle: saline with Tween-80
[7] = dose: 50.0 mg/kg/injection, schedule: Q01DX005 (ip), vehicle: Klucel (hydroxypropylcellulose) (HPC)

CNC(=O)C(O)c1c(-c2ccccc2)c(-c2ccccc2)c2n1CCC2 (stereo unspecified)
T/C (dose: 60.0 mg/kg/injection, schedule: Q01DX005 (ip), vehicle: Klucel (hydroxypropylcellulose) (HPC)): 96 % of control | T/C (dose: 120.0 mg/kg/injection, schedule: Q01DX005 (ip), vehicle: Klucel (hydroxypropylcellulose) (HPC)): 89 % of control | T/C (dose: 240.0 mg/kg/injection, schedule: Q01DX005 (ip), vehicle: Klucel (hydroxypropylcellulose) (HPC)): 86 % of control

O=C(O)c1c[nH]c2cc(-n3cccc3)ccc2c1=O
T/C [1]: 102 % of control | T/C [2]: 101 % of control | T/C [3]: 102 % of control and 88 % of control

O=C1c2ccccc2C(=O)N1c1ccc(Cl)cc1[N+](=O)[O-]
T/C (dose: 100.0 mg/kg/injection, schedule: Q04DX002 (ip), vehicle: saline): 99 % of control | T/C (dose: 200.0 mg/kg/injection, schedule: Q04DX002 (ip), vehicle: saline): 99 % of control | T/C (dose: 400.0 mg/kg/injection, schedule: Q04DX002 (ip), vehicle: saline): 97 % of control

COc1nc(=O)n(C2OC(=O)C(C)(C)C2=O)cc1F (stereo unspecified)
T/C (dose: 11.25 mg/kg/injection, schedule: Q04DX002 (ip), vehicle: distilled water + Tween-80): 100 % of control | T/C (dose: 22.5 mg/kg/injection, schedule: Q04DX002 (ip), vehicle: distilled water + Tween-80): 106 % of control | T/C (dose: 45.0 mg/kg/injection, schedule: Q04DX002 (ip), vehicle: distilled water + Tween-80): 100 % of control | T/C (dose: 90.0 mg/kg/injection, schedule: Q04DX002 (ip), vehicle: distilled water + Tween-80): 106 % of control | T/C (dose: 180.0 mg/kg/injection, schedule: Q04DX002 (ip), vehicle: distilled water + Tween-80): 96 % of control | T/C (dose: 360.0 mg/kg/injection, schedule: Q04DX002 (ip), vehicle: distilled water + Tween-80): 100 % of control

O=C(NC(Cc1ccc(OC(=O)OCc2ccccc2)cc1)C(=O)O)OCc1ccccc1 (stereo unspecified)
T/C (dose: 50.0 mg/kg/injection, schedule: Q01DX005 (ip), vehicle: saline with Tween-80): 99 % of control | T/C (dose: 100.0 mg/kg/injection, schedule: Q01DX005 (ip), vehicle: saline with Tween-80): 90 % of control | T/C (dose: 200.0 mg/kg/injection, schedule: Q01DX005 (ip), vehicle: saline with Tween-80): 101 % of control

CC(=O)NC1C(Nc2ccc(S(=O)(=O)Nc3ccnn3-c3ccccc3)cc2)OC(CO)C(O)C1O (stereo unspecified)
T/C (dose: 50.0 mg/kg/injection, schedule: Q01DX005 (ip), vehicle: saline): 108 % of control | T/C (dose: 100.0 mg/kg/injection, schedule: Q01DX005 (ip), vehicle: saline): 100 % of control | T/C (dose: 200.0 mg/kg/injection, schedule: Q01DX005 (ip), vehicle: saline): 106 % of control

CCOP(=O)(OCC)/C(C#N)=C\c1ccc(O)c(OC)c1
T/C [4]: 110 % of control | T/C [5]: 100 % of control | T/C [6]: 100 % of control

Cc1cc(N(CCCl)CCCl)ccc1C=Nc1ccccc1-c1ccccc1
T/C (dose: 400.0 mg/kg/injection, schedule: Q01DX009 (ip), vehicle: Klucel (hydroxypropylcellulose) (HPC)): 155 % of control | T/C (dose: 600.0 mg/kg/injection, schedule: Q01DX009 (ip), vehicle: Klucel (hydroxypropylcellulose) (HPC)): 170 % of control

C/C(=N/NC(=O)c1ccccc1)C(=O)OC(=NC1CCCCC1)NC1CCCCC1
T/C (dose: 100.0 mg/kg/injection, schedule: Q04DX002 (ip), vehicle: Klucel (hydroxypropylcellulose) (HPC)): 99 % of control | T/C (dose: 200.0 mg/kg/injection, schedule: Q04DX002 (ip), vehicle: Klucel (hydroxypropylcellulose) (HPC)): 95 % of control | T/C (dose: 400.0 mg/kg/injection, schedule: Q04DX002 (ip), vehicle: Klucel (hydroxypropylcellulose) (HPC)): 96 % of control

Cc1cc(O)c2c(c1O)C(=O)c1cccc(O)c1C2=O
T/C (dose: 0.75 mg/kg/injection, schedule: Q01DX009 (ip), vehicle: Klucel (hydroxypropylcellulose) (HPC)): 108 % of control | T/C (dose: 1.5 mg/kg/injection, schedule: Q01DX009 (ip), vehicle: Klucel (hydroxypropylcellulose) (HPC)): 115 % of control | T/C (dose: 3.0 mg/kg/injection, schedule: Q01DX005 (ip), vehicle: Klucel (hydroxypropylcellulose) (HPC)): 99 % of control | T/C (dose: 3.0 mg/kg/injection, schedule: Q01DX009 (ip), vehicle: Klucel (hydroxypropylcellulose) (HPC)): 90 % of control | T/C (dose: 6.0 mg/kg/injection, schedule: Q01DX005 (ip), vehicle: Klucel (hydroxypropylcellulose) (HPC)): 106 % of control | T/C (dose: 6.0 mg/kg/injection, schedule: Q01DX009 (ip), vehicle: Klucel (hydroxypropylcellulose) (HPC)): 114 % of control | T/C (dose: 12.0 mg/kg/injection, schedule: Q01DX005 (ip), vehicle: Klucel (hydroxypropylcellulose) (HPC)): 101 % of control | T/C (dose: 12.0 mg/kg/injection, schedule: Q01DX009 (ip), vehicle: Klucel (hydroxypropylcellulose) (HPC)): 98 % of control | T/C (dose: 12.5 mg/kg/injection, schedule: Q01DX005 (ip), vehicle: Klucel (hydroxypropylcellulose) (HPC)): 101 % of control | T/C (dose: 24.0 mg/kg/injection, schedule: Q01DX005 (ip), vehicle: Klucel (hydroxypropylcellulose) (HPC)): 95 % of control | T/C (dose: 25.0 mg/kg/injection, schedule: Q01DX005 (ip), vehicle: Klucel (hydroxypropylcellulose) (HPC)): 97 % of control | T/C [7]: 90 % of control | T/C (dose: 100.0 mg/kg/injection, schedule: Q01DX001 (ip), vehicle: saline): 109 % of control | T/C (dose: 200.0 mg/kg/injection, schedule: Q01DX001 (ip), vehicle: saline): 108 % of control | T/C (dose: 400.0 mg/kg/injection, schedule: Q01DX001 (ip), vehicle: saline): 100 % of control

Cn1nccc1N
T/C (dose: 25.0 mg/kg/injection, schedule: Q01DX009 (ip), vehicle: saline): 117 % of control | T/C (dose: 50.0 mg/kg/injection, schedule: Q01DX009 (ip), vehicle: saline): 108 % of control

Nc1cc2nc3ccccc3oc-2cc1=O
T/C [7]: 105 % of control | T/C (dose: 100.0 mg/kg/injection, schedule: Q01DX005 (ip), vehicle: Klucel (hydroxypropylcellulose) (HPC)): 101 % of control | T/C (dose: 200.0 mg/kg/injection, schedule: Q01DX005 (ip), vehicle: Klucel (hydroxypropylcellulose) (HPC)): 97 % of control

OCCN1CCN(CC/C=C2/c3ccccc3Sc3ccc(Cl)cc32)CC1
T/C (dose: 0.39 mg/kg/injection, schedule: Q01DX005 (ip), vehicle: saline): 100 % of control | T/C (dose: 0.78 mg/kg/injection, schedule: Q01DX005 (ip), vehicle: saline): 100 % of control | T/C (dose: 1.56 mg/kg/injection, schedule: Q01DX005 (ip), vehicle: saline): 105 % of control | T/C (dose: 6.25 mg/kg/injection, schedule: Q01DX005 (ip), vehicle: saline): 123 % of control | T/C (dose: 12.5 mg/kg/injection, schedule: Q04DX003 (ip), vehicle: saline): 118 % of control | T/C (dose: 25.0 mg/kg/injection, schedule: Q04DX003 (ip), vehicle: saline): 122 % of control | T/C (dose: 33.0 mg/kg/injection, schedule: Q04DX003 (ip), vehicle: saline): 90 % of control | T/C (dose: 50.0 mg/kg/injection, schedule: Q04DX003 (ip), vehicle: saline): 90 % of control | T/C (dose: 75.0 mg/kg/injection, schedule: Q04DX003 (ip), vehicle: saline): 100 % of control

CC1OC(OCC2OC(Oc3c(-c4ccc(O)c(O)c4)oc4cc(O)cc(O)c4c3=O)C(O)C(O)C2O)C(O)C(O)C1O (stereo unspecified)
T/C (dose: 6.25 mg/kg/injection, schedule: Q01DX005 (ip), vehicle: saline with Tween-80): 95 % of control | T/C (dose: 12.5 mg/kg/injection, schedule: Q01DX005 (ip), vehicle: saline with Tween-80): 94 % of control | T/C (dose: 25.0 mg/kg/injection, schedule: Q01DX005 (ip), vehicle: saline with Tween-80): 94 % of control

COc1cc(-c2cc(C(=O)O)c3cc4ccccc4cc3n2)cc(OC)c1OC
T/C (dose: 50.0 mg/kg/injection, schedule: Q01DX009 (ip), vehicle: Klucel (hydroxypropylcellulose) (HPC)): 113 % of control | T/C (dose: 100.0 mg/kg/injection, schedule: Q01DX009 (ip), vehicle: Klucel (hydroxypropylcellulose) (HPC)): 110 % of control | T/C (dose: 200.0 mg/kg/injection, schedule: Q01DX009 (ip), vehicle: Klucel (hydroxypropylcellulose) (HPC)): 104 % of control

Cc1cc2ccc(OC(=O)c3ccc(N=C(N)N)cc3)cc2oc1=O
T/C [4]: 100 % of control | T/C [5]: 91 % of control | T/C [6]: 87 % of control

CC1(C)CC2(C)OC(=O)c3ccccc3N2C(=S)N1 (stereo unspecified)
T/C [1]: 94 % of control | T/C [2]: 95 % of control | T/C [3]: 90 % of control and 96 % of control

O=C1c2ccccc2-c2nc3ncccc3cc21
T/C [4]: 98 % of control | T/C [5]: 102 % of control | T/C [6]: 102 % of control

C=C1C(=O)OC2C1C(OC(=O)/C(=C/C)CO)CC(C)(O)C1CC=C(C)C21 (stereo unspecified)
T/C (dose: 11.88 mg/kg/injection, schedule: Q01DX005 (ip), vehicle: Klucel (hydroxypropylcellulose) (HPC)): 109 % of control | T/C (dose: 23.75 mg/kg/injection, schedule: Q01DX005 (ip), vehicle: Klucel (hydroxypropylcellulose) (HPC)): 109 % of control | T/C (dose: 47.5 mg/kg/injection, schedule: Q01DX005 (ip), vehicle: Klucel (hydroxypropylcellulose) (HPC)): 102 % of control

Source: PubChem BioAssay AID330 (DTP/NCI, 2004)
